Results reported in patent US9420813B2, “Sweetener” (AJINOMOTO CO., INC., priority 2007, dated 2016).
*1 amine or outer side, *2 acyl side, *3 side chain or, on linkers, in order; H or OH if unused. Where no end group is shown, it is not given here. [ ]: non-standard residue; d: D form. γGlu = O=C(O)[C@H](CCC(=O)[*:2])N[*:1]; Abu = CC[C@H](N)C(=O)O

Experiment: Quantitative sensory evaluation, improvement of body taste and bitterness of single high-intensity sweeteners (Examples 1 and 3)
Set-up: species or system human
Details: for Bitterness: control 0, <0 improved; for Bitterness / Body taste: n=12; for Body taste: control 0, >0 improved; for improvement of the body taste (conclusion in words): APM, sucralose or Ace-K solutions, Tables 6 to 8 and 13 to 15
Procedure: The quantitative sensory evaluation test was performed as follows. As for standard solutions of each sweetener, the following compounds were used. The following standard solutions were adjusted so that they each have almost the same degree of sweetness.
iii) Sucralose (0.008 g/dl)
To distilled water containing each of the above sweeteners, γ-Glu-Cys-Gly (glutathione), γ-Glu-Val-Gly, or γ-Glu-Abu-Gly was added and mixed at concentrations of 0.0001 to 1 g/dl, and then the degree of the improvement of the body taste and the improvement of the bitterness on the sweet taste was measured.
When one of the mixtures is more acidic than the standard control solution, the pH of the sample solution was adjusted with NaOH to achieve a range of pH±0.2 with respect to the pH of the standard solution before use.
(§1) The sensory evaluation for the improvement of the body taste was performed with n=12 on the basis of the following criteria: a control (obtained by adding distilled water only and without adding glutathione and/or the peptide) was defined as 0, and by using the control as a standard, the following were defined: weak: −2 points; slightly weak: −1 point; slightly strong: 1 point, and strong: 2 points. A higher score than 0 means that the sample improved the body taste.
as §1, with “Alternatively, the” for “The”, “bitterness” for “body taste”, “lower” for “higher”, “improves” for “improved”, “bitterness.” for “body taste.”
The quantitative sensory evaluation test was performed as follows. As for standard solutions of each sweetener, the following compounds were used. The following standard solutions have been adjusted so as they each have almost the same degree of sweetness.
To distilled water containing each sweeteners, γ-Glu-Val-Gly or cinacalcet was mixed as a sample at concentrations of 0.0001 to 1 g/dl, respectively, and then each degree of the improvement of the body taste and the improvement of the bitterness on the sweet taste was measured.
When a mixture is more acidic than the standard control solution, the pH of the mixture was adjusted with NaOH to achieve a range of pH±0.2 with respect to the pH of the standard solution before use.
as §1, with “a sample)” for “glutathione and/or the peptide)”, “improves” for “improved”
Alternatively, the sensory evaluation for the improvement of the bitterness was performed with n=12 on the basis of the following criteria: a control (obtained with adding distilled water only and without adding a sample) was defined as 0, and by using the control as a standard, the following were defined: weak: −2 points; slightly weak: −1 point; slightly strong: 1 point, and strong: 2 points. A lower score than 0 means that the sample improves the bitterness.

[1] = APM 0.025 g/dl, sample 0.0001 g/dl
[2] = APM 0.025 g/dl, sample 0.001 g/dl
[3] = Ace-K 0.025 g/dl, sample 0.0001 g/dl
[4] = Ace-K 0.025 g/dl, sample 0.001 g/dl
[5] = sucralose 0.008 g/dl, sample 0.0001 g/dl
[6] = sucralose 0.008 g/dl, sample 0.001 g/dl
[7] = APM 0.025 g/dl, sample 0.05 g/dl
[8] = Ace-K 0.025 g/dl, sample 0.05 g/dl
[9] = sucralose 0.008 g/dl, sample 0.05 g/dl
[10] = APM 0.025 g/dl, sample 0.001 g/dl (γ-Glu-Abu-Gly of Table 6)
[11] = Ace-K 0.025 g/dl, sample 0.01 g/dl
[12] = sucralose 0.008 g/dl, sample 0.01 g/dl

C[C@@H](NCCCc1cccc(C(F)(F)F)c1)c1cccc2ccccc12 [Cinacalcet, (R)—N-(3-(3-(trifluoromethyl)phenyl)propyl)-1-(1-naphthyl)ethylamine, reference compound]
Bitterness [1]: −0.2 points | Body taste [1]: 0.8 points | Bitterness [2]: −0.5 points | Body taste [2]: 1.5 points | improvement of the body taste (conclusion in words): improve the body taste at almost the same concentration | Taste profile [3]: Sweet taste with growth is enhanced in middle | Bitterness [3]: −0.2 points | Body taste [3]: 0.6 points | Taste profile [4]: Sweet taste with growth is enhanced in middle | Bitterness [4]: −0.3 points | Body taste [4]: 1.1 points | Bitterness [5]: −0.1 points | Body taste [5]: 0.5 points | Bitterness [6]: −0.2 points | Body taste [6]: 1.1 points

N[C@@H](CCC(=O)N[C@@H](CS)C(=O)NCC(=O)O)C(=O)O [γ-Glu-Cys-Gly, reference compound]
Taste profile [7]: Sweet taste is wholly enhanced. | Bitterness [7]: −0.5 points | Body taste [7]: 1.0 points | Bitterness [8]: −0.6 points | Body taste [8]: 1.0 points | Taste profile [9]: Sweet taste with growth is enhanced in middle | Bitterness [9]: 0 points | Body taste [9]: 1.0 points

[γGlu]-Val-Gly
Bitterness [1]: −0.2 points | Body taste [1]: 0.5 points | Bitterness [2]: −0.5 points | Body taste [2]: 1.3 points | improvement of the body taste (conclusion in words): improve the body taste at almost the same concentration | Taste profile [3]: Sweet taste with growth is enhanced in middle | Bitterness [3]: −0.6 points | Body taste [3]: 0.7 points | Taste profile [4]: Sweet taste with growth is enhanced in middle | Bitterness [4]: −1.2 points | Body taste [4]: 1.2 points | Bitterness [5]: −0.1 points | Body taste [5]: 0.7 points | Bitterness [6]: −0.2 points | Body taste [6]: 1.3 points

[γGlu]-[Abu]-Gly
Taste profile [2]: Sweet taste is enhanced in initial taste | Taste profile [10]: Sweet taste is enhanced in initial taste | Bitterness [10]: −0.1 points | Body taste [10]: 1.5 points | Bitterness [2]: −0.1 points | Body taste [2]: 0.7 points | Bitterness [4]: −0.6 points | Body taste [4]: 0.5 points | Bitterness [11]: −1.2 points | Body taste [11]: 1.1 points | Bitterness [6]: −0.1 points | Body taste [6]: 0.5 points | Bitterness [12]: −0.1 points | Body taste [12]: 1.0 points
